Measured values as given in patent publication US12575572B2, “Systems, methods, and apparatuses for disinfection and decontamination” (priority 2020, dated 2026).

Tested on: Phi6 bacteriophage (surrogate for Coronavirus and Ebola)

## [O][Cl+][O-] [ClO2, chlorine dioxide]
  virions recovered from treated coupons: no virions were recovered
